ChEMBL document CHEMBL4507260 (2021)

How the values were obtained:
[1] = molecular target: Phosphorylase b kinase regulatory subunit alpha, liver isoform (Homo sapiens) (UniProt P46019); details: Compound concentration 1000.0 nM
[2] = molecular target: Adrenergic receptor alpha-1 (Homo sapiens) (UniProt P35348+P25100+P35368); assay: a 1 CEREP ligand profiling; format: protein assay; details: Compound concentration 10.0 uM
[3] = molecular target: Beta-2 adrenergic receptor (Homo sapiens) (UniProt P07550); assay: b 2 CEREP ligand profiling; details: Compound concentration 10.0 uM
[4] = molecular target: Substance-K receptor (Homo sapiens) (UniProt P21452); assay: NK2 CEREP ligand profiling; details: Compound concentration 10.0 uM
[5] = molecular target: 5-hydroxytryptamine receptor 1A (Homo sapiens) (UniProt P08908); assay: 5-HT1A CEREP ligand profiling; details: Compound concentration 10.0 uM
[6] = molecular target: 5-hydroxytryptamine receptor 5A (Homo sapiens) (UniProt P47898); assay: 5-HT5A CEREP ligand profiling; details: Compound concentration 10.0 uM
[7] = molecular target: Voltage-gated L-type calcium channel (Ca2+ channel) (Homo sapiens, UniProt O60840+Q01668+Q13698+Q13936); assay: Ca2+ channel CEREP ligand profiling; format: protein assay; details: compound concentration 10 uM
[8] = molecular target: Sodium channel alpha subunit (Na+ channel) (Homo sapiens, UniProt P35498+P35499+Q01118+Q14524+Q15858+Q99250+Q9NY46+Q9UI33+Q9UQD0+Q9Y5Y9); assay: Na+ channel CEREP ligand profiling; format: protein assay; details: compound concentration 10 uM
[9] = molecular target: Sodium-dependent noradrenaline transporter (Homo sapiens) (UniProt P23975); details: Compound concentration 10.0 uM
Description: NE transporter CEREP ligand profiling

[10] = molecular target: Natriuretic peptides A (Homo sapiens) (UniProt P01160); details: Compound concentration 10.0 uM
Description: ANP CEREP ligand profiling

[11] = molecular target: Translocator protein (Rattus norvegicus) (UniProt P16257); details: Compound concentration 10.0 uM
Description: BZD (peripheral) CEREP ligand profiling

[12] = molecular target: Cannabinoid receptor 1 (Homo sapiens) (UniProt P21554); details: Compound concentration 10.0 uM
Description: CB1 CEREP ligand profiling

[13] = molecular target: Cholecystokinin receptor type A (Homo sapiens) (UniProt P32238); details: Compound concentration 10.0 uM
Description: CCKA (CCK1) CEREP ligand profiling

[14] = molecular target: D(1B) dopamine receptor (Homo sapiens) (UniProt P21918); details: Compound concentration 10.0 uM
Description: D5 CEREP ligand profiling

[15] = molecular target: C-C chemokine receptor type 1 (Homo sapiens) (UniProt P32246); details: Compound concentration 10.0 uM
Description: CCR1 CEREP ligand profiling

[16] = molecular target: Muscarinic acetylcholine receptor M3 (Homo sapiens) (UniProt P20309); details: Compound concentration 10.0 uM
Description: M3 CEREP ligand profiling

[17] = molecular target: Muscarinic acetylcholine receptor M5 (Homo sapiens) (UniProt P08912); details: Compound concentration 10.0 uM
Description: M5 CEREP ligand profiling

[18] = molecular target: Substance-P receptor (Homo sapiens) (UniProt P25103); details: Compound concentration 10.0 uM
Description: NK1 CEREP ligand profiling

[19] = molecular target: Neuropeptide Y receptor type 1 (Homo sapiens) (UniProt P25929); details: Compound concentration 10.0 uM
Chain of Neuropeptide Y receptor type 1 (Homo sapiens) (P25929 whole entry): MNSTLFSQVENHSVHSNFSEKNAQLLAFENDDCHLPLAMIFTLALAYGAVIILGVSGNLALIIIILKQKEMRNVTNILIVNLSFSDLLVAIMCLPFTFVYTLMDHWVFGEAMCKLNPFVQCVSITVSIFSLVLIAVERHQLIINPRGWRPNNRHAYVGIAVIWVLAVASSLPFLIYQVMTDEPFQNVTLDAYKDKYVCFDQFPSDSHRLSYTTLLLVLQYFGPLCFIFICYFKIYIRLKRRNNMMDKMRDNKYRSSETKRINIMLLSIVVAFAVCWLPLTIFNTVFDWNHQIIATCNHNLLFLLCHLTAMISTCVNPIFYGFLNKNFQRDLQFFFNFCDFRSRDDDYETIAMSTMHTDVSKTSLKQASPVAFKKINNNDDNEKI
Description: Y1 CEREP ligand profiling

Chain of Cannabinoid receptor 1 (Homo sapiens) (P21554 whole entry): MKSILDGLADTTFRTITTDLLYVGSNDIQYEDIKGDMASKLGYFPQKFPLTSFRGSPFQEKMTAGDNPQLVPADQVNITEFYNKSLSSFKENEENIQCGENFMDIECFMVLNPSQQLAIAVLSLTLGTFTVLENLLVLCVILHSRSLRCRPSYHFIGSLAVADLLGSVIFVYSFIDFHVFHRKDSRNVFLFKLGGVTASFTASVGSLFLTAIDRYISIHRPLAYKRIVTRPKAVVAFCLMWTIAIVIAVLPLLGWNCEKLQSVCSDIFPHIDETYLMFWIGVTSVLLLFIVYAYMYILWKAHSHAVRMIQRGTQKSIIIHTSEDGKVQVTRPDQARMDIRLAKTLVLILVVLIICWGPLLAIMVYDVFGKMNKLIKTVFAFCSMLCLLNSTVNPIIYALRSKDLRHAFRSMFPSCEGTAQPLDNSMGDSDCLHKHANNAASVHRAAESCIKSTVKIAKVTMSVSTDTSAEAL
Chain of Sodium-dependent noradrenaline transporter (Homo sapiens) (P23975 whole entry): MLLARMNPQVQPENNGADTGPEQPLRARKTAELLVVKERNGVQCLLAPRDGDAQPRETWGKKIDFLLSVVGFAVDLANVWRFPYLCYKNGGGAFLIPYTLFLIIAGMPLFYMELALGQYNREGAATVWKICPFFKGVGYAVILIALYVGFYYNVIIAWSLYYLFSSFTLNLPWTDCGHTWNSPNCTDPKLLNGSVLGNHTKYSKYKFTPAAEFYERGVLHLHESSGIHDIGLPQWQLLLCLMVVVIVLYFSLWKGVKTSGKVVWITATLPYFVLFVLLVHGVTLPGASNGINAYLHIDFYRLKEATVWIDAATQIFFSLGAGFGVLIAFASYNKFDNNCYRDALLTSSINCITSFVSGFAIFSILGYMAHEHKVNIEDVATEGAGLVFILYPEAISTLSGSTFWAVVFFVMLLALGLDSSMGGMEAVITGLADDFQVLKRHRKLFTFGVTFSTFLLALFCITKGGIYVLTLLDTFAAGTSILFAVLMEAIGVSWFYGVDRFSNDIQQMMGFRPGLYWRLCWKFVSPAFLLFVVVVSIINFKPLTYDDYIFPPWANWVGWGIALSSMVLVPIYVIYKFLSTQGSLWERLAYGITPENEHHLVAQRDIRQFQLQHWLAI
Chain of Beta-2 adrenergic receptor (Homo sapiens) (P07550 whole entry, looked up): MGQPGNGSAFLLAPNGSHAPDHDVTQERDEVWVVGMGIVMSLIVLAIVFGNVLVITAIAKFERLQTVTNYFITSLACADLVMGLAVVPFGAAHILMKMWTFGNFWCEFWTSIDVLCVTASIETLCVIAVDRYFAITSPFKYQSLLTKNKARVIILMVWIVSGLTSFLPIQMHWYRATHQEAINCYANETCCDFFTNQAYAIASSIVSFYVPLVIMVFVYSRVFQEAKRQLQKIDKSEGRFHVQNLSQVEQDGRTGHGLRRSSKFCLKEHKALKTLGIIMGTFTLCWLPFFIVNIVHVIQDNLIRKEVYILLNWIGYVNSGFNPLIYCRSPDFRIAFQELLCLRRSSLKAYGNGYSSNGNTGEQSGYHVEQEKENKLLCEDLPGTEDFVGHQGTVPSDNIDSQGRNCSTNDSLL
Chain of Muscarinic acetylcholine receptor M3 (Homo sapiens) (P20309 whole entry, looked up): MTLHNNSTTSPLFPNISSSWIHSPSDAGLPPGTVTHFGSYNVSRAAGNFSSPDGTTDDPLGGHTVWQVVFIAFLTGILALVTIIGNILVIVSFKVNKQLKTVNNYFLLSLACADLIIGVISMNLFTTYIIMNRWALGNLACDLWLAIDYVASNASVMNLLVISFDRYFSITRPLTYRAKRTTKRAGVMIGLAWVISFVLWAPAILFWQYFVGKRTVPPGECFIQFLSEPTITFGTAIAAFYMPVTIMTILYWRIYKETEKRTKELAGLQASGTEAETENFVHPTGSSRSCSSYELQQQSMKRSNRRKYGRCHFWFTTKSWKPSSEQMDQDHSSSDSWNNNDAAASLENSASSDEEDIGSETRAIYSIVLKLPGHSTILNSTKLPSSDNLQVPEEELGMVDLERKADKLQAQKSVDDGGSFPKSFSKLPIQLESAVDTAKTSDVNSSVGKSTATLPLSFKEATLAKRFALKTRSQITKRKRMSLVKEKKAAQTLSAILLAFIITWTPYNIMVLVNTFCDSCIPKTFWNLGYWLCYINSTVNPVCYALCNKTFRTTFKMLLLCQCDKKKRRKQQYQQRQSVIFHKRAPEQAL
Chain of Substance-K receptor (Homo sapiens) (P21452 whole entry): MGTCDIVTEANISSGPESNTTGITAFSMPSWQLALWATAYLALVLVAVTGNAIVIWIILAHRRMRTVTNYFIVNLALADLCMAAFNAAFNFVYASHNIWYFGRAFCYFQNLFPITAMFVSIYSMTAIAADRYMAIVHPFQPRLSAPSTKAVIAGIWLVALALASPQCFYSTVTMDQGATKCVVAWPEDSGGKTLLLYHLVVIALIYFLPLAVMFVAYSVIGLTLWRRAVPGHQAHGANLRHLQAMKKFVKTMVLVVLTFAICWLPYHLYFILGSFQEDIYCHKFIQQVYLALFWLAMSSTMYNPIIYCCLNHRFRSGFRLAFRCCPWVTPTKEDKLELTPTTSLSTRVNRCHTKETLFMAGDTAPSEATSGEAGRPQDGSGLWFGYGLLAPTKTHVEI
Chain of Cholecystokinin receptor type A (Homo sapiens) (P32238 whole entry): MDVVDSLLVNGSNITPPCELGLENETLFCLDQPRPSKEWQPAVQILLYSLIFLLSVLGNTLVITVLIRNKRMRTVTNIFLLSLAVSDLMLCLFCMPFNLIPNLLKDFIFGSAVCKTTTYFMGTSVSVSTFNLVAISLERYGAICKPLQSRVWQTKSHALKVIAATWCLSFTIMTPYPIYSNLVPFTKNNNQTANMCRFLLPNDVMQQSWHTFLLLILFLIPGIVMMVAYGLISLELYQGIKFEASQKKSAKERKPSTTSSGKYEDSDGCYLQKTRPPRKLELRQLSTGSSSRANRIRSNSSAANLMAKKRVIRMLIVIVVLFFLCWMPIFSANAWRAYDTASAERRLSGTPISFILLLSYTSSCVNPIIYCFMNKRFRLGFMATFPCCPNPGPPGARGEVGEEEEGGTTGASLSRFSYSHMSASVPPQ
Chain of 5-hydroxytryptamine receptor 5A (Homo sapiens) (P47898 whole entry): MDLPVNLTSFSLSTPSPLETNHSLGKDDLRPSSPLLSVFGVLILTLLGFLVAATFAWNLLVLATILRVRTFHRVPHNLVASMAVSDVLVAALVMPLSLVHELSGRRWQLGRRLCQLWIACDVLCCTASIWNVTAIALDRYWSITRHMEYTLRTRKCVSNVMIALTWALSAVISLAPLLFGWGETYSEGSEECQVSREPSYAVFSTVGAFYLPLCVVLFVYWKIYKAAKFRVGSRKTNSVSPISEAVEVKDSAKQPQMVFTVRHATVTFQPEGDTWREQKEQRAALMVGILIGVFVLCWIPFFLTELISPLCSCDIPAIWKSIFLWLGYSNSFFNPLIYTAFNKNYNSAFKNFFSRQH
Chain of Muscarinic acetylcholine receptor M5 (Homo sapiens) (P08912 whole entry): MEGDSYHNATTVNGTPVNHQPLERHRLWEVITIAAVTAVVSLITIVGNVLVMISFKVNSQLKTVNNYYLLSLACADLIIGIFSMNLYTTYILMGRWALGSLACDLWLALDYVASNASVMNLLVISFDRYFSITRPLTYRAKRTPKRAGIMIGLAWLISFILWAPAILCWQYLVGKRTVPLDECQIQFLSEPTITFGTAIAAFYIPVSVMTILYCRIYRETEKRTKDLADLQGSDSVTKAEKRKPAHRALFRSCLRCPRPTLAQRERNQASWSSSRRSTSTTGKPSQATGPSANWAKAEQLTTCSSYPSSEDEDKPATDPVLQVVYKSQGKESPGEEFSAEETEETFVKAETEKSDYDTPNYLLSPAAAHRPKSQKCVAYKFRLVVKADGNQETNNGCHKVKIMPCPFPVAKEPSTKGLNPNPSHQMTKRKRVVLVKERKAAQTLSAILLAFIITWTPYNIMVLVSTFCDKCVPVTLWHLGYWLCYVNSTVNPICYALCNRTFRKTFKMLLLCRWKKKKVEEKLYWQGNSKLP
Chain of Translocator protein (Rattus norvegicus) (P16257 whole entry, looked up): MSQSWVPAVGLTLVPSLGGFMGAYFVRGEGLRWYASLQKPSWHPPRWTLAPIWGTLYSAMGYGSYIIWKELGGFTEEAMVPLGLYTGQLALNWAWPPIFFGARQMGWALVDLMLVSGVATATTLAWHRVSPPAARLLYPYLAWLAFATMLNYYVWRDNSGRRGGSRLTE
Chain of Substance-P receptor (Homo sapiens) (P25103 whole entry): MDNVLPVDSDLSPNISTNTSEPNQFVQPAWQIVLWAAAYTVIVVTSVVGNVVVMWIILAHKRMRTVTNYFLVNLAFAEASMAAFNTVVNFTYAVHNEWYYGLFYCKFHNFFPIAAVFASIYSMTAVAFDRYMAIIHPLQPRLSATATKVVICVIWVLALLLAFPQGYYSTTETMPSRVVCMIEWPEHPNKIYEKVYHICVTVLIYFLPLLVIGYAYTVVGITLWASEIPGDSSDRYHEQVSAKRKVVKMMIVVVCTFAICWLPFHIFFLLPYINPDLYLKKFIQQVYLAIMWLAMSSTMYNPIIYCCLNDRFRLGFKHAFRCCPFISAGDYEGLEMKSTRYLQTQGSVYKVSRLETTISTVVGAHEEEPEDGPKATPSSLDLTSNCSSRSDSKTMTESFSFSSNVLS
Chain of Natriuretic peptides A (Homo sapiens) (P01160 whole entry): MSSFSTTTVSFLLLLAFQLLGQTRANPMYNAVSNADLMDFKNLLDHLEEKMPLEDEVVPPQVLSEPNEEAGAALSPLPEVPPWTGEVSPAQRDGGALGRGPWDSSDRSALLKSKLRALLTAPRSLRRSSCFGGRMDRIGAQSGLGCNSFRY

| Structure (SMILES) | residual activity [1] | inhibition [2] | inhibition [3] | inhibition [4] | inhibition [5] | inhibition [6] | inhibition at 10 µM [7] | inhibition at 10 µM [8] | inhibition [9] | inhibition [10] | inhibition [11] | inhibition [12] | inhibition [13] | inhibition [14] | inhibition [15] | inhibition [16] | inhibition [17] | inhibition [18] | inhibition [19] |
| --- | --- | --- | --- | --- | --- | --- | --- | --- | --- | --- | --- | --- | --- | --- | --- | --- | --- | --- | --- |
| CSc1cccnc1N1CCN(Cc2nc3ccccc3[nH]2)CC1 [A-769] | 100% |  |  |  |  |  |  |  |  |  |  |  |  |  |  |  |  |  |  |
| c1ccc(N2CCN(Cc3nc4ccccc4[nH]3)CC2)nc1 [ABT-724] |  | 23% | 13% | 15% | 73% | 21% | < 10% (not active) | < 10% (not active) | < 10% | < 10% | < 10% | < 10% | < 10% | < 10% | < 10% | < 10% | < 10% | < 10% | < 10% |
